# According to patent publication US8404708B2, “Dual NK1/NK3 receptor antagonists” (Hoffmann-La Roche Inc., priority 2004, dated 2013):
# Tests used:
# [1] = biological target: T1, Recombinant human NK3 (hNK3) receptor (Homo sapiens, UniProt P29371); assay: NK3 receptor binding, [3H]SR142801 displacement, membrane preparations; settings: for Ki: read-out: pKi NK3 (converted)
# T1 construct: expressed in transfected cells
# T1 sequence (P29371 1-465): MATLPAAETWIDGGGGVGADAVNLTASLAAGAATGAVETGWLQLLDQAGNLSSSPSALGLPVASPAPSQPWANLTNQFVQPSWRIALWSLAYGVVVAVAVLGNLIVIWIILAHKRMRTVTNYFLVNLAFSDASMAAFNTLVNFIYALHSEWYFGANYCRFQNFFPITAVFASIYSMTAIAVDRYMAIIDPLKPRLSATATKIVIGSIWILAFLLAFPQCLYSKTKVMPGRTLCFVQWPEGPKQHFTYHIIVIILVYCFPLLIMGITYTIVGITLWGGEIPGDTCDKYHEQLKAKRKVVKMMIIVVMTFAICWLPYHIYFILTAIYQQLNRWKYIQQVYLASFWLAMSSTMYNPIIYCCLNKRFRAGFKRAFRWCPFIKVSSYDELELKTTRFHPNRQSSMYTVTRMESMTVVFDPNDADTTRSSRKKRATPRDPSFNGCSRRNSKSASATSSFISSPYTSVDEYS
# Method in brief: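 Room-temperature, 90-min filtration binding assay using about 2.5 μg recombinant receptor membranes per well; separation on polyethyleneimine-treated glass-fibre (GF/C) filters and liquid scintillation read-out, with 10 μM SB222200 for nonspecific binding.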
# human NK1 receptor = human NK1 receptor (Homo sapiens, UniProt P25103); assay: NK1 receptor binding, [3H]substance P displacement, CHO cell membranes; settings: first value of the cell NK1/NK3; read-out: pKi NK1 (converted)
# Chain of human NK1 receptor (P25103 whole entry): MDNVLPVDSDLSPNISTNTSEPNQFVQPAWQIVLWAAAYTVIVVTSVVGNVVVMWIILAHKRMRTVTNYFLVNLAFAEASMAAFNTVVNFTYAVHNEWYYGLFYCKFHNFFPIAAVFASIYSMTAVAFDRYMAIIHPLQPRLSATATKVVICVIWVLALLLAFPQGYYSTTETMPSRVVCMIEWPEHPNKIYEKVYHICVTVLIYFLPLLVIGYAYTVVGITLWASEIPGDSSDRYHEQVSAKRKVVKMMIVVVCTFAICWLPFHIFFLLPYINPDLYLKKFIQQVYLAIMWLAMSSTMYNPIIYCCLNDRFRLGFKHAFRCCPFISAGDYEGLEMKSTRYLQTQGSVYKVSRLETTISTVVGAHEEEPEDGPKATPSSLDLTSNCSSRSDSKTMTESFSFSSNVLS
# [2] = phase II trial, cited from earlier work
# [3] = second value of the cell NK1/NK3
"Ki [1, 3] [nM]",Ki (human NK1 receptor) [nM],SMILES,further results
1.66,1.55,"Cc1ccccc1-c1cc(N2CC(=O)C[C@H]2CO)ncc1N(C)C(=O)C(C)(C)c1cc(C(F)(F)F)cc(C(F)(F)F)c1 [Example 295, (S)-2-(3,5-Bis-trifluoromethyl-phenyl)-N-[6-(2-hydroxymethyl-4-oxo-pyrrolidin-1-yl)-4-o-tolyl-pyridin-3-yl]-N-methyl-isobutyramide]",–
1.74,2.51,"Cc1cc(F)ccc1-c1cc(N2CC(=O)C[C@H]2CO)ncc1N(C)C(=O)C(C)(C)c1cc(C(F)(F)F)cc(C(F)(F)F)c1 [Example 296, (S)-2-(3,5-Bis-trifluoromethyl-phenyl)-N-[4-(4-fluoro-2-methyl-phenyl)-6-(2-hydroxymethyl-4-oxo-pyrrolidin-1-yl)-pyridin-3-yl]-N-methyl-isobutyramide]",–
–,1.55,"Cc1cc(F)ccc1-c1cc(N2C[C@@H](F)C[C@H]2CO)ncc1N(C)C(=O)C(C)(C)c1cc(C(F)(F)F)cc(C(F)(F)F)c1 [Example 298, (2S,4S)-2-(3,5-Bis-trifluoromethyl-phenyl)-N-[6-(4-fluoro-2-hydroxymethyl-pyrrolidin-1-yl)-4-(4-fluoro-2-methyl-phenyl)-pyridin-3-yl]-N-methyl-isobutyramide]","pKi NK3 [1, 3]: 9.15"
0.49,0.955,"Cc1cc(F)ccc1-c1cc(N2CC(F)(F)C[C@H]2CO)ncc1N(C)C(=O)C(C)(C)c1cc(C(F)(F)F)cc(C(F)(F)F)c1 [Example 300, (S)-2-(3,5-Bis-trifluoromethyl-phenyl)-N-[6-(4,4-difluoro-2-hydroxymethyl-pyrrolidin-1-yl)-4-(4-fluoro-2-methyl-phenyl)-pyridin-3-yl]-N-methyl-isobutyramide]",–
20.4,2.51,"CC(=O)NC[C@@H]1CCCN1c1cc(-c2ccc(F)cc2C)c(N(C)C(=O)C(C)(C)c2cc(C(F)(F)F)cc(C(F)(F)F)c2)cn1 [Example 302, (S)-N-[6-[2-(Acetylamino-methyl)-pyrrolidin-1-yl]-4-(4-fluoro-2-methyl-phenyl)-pyridin-3-yl]-2-(3,5-bis-trifluoromethyl-phenyl)-N-methyl-isobutyramide]",–

# Further lines, the compound ahead of its results:
SMILES,"Ki [1, 3] [nM]",Ki (human NK1 receptor) [nM],further results
"CN(C(=O)C(C)(C)c1cc(C(F)(F)F)cc(C(F)(F)F)c1)c1cnc(NCCO)cc1-c1ccccc1Cl [Example 67, 2-(3,5-Bis-trifluoromethyl-phenyl)-N-[4-(2-chloro-phenyl)-6-(2-hydroxy-ethylamino)-pyridin-3-yl]-N-methyl-isobutyramide]",–,–,"melting point: 117 to 118 °C; pKi NK3 ([1]; second value of the cell pKi NK1/NK3, hNK3 receptor, [3H]SR142801): 7.94"
"Cc1ccncc1-c1cc(N(C)CCO)ncc1N(C)C(=O)C(C)(C)c1cc(C(F)(F)F)cc(C(F)(F)F)c1 [Example 294, 2-(3,5-Bis-trifluoromethyl-phenyl)-N-{6′-[(2-hydroxy-ethyl)-methyl-amino]-4-methyl-[3,4′]bipyridinyl-3′-yl}-N-methyl-isobutyramide]",4.27,5.13,–
"Cc1ccccc1-c1cc(N2C[C@@H](F)C[C@H]2CO)ncc1N(C)C(=O)C(C)(C)c1cc(C(F)(F)F)cc(C(F)(F)F)c1 [Example 297, (2S,4S)-2-(3,5-Bis-trifluoromethyl-phenyl)-N-[6-(4-fluoro-2-hydroxymethyl-pyrrolidin-1-yl)-4-o-tolyl-pyridin-3-yl]-N-methyl-isobutyramide]",1.32,2.88,–
"Cc1ccccc1-c1cc(N2CC(F)(F)C[C@H]2CO)ncc1N(C)C(=O)C(C)(C)c1cc(C(F)(F)F)cc(C(F)(F)F)c1 [Example 299, (S)-2-(3,5-Bis-trifluoromethyl-phenyl)-N-[6-(4,4-difluoro-2-hydroxymethyl-pyrrolidin-1-yl)-4-o-tolyl-pyridin-3-yl]-N-methyl-isobutyramide]",1.07,2.57,–
"Cc1ccccc1-c1cc(N2C[C@H](F)C[C@H]2CO)ncc1N(C)C(=O)C(C)(C)c1cc(C(F)(F)F)cc(C(F)(F)F)c1 [Example 301, (2S,4R)-2-(3,5-Bis-trifluoromethyl-phenyl)-N-[6-(4-fluoro-2-hydroxymethyl-pyrrolidin-1-yl)-4-o-tolyl-pyridin-3-yl]-N-methyl-isobutyramide]",2.29,2.14,–
"Cc1cc(F)ccc1-c1cc(N2CCC[C@H]2COC(=O)N(C)C)ncc1N(C)C(=O)C(C)(C)c1cc(C(F)(F)F)cc(C(F)(F)F)c1 [Example 303, (S)-Dimethyl-carbamic Acid 1-[5-{[2-(3,5-bis-trifluoromethyl-phenyl)-2-methyl-propionyl]-methyl-amino}-4-(4-fluoro-2-methyl-phenyl)-pyridin-2-yl]-pyrrolidin-2-ylmethyl Ester]",15.1,1.32,–
"CC(=O)N(C)C1(c2ccccc2)CCN(CCC[C@]2(c3ccc(Cl)c(Cl)c3)CCCN(C(=O)c3ccccc3)C2)CC1 [SR 142,801, Osanetant]",–,–,"activity on positive symptoms of schizophrenia ([2]; altered behavior, delusion, hallucinations, extreme emotions, excited motor activity, incoherent speech): active; activity in the treatment of negative symptoms of schizophrenia ([2]; depression, anhedonia, social isolation, memory and attention deficits): inactive"
